Results taken from patent publication US4943566A, “Novel 17-aryl-steroids” (Roussel Uclafi, priority 1987, dated 1990).

Legend:
[1] = target: T1, progesterone receptors of rabbit uterus (Oryctolagus cuniculus, UniProt P06186); test: Relative binding affinity (ARL), progesterone receptors of rabbit uterus; conditions: rabbit uterus cytosol, tritiated 17,21-dimethyl-19-nor-Δ4,9-pregnadiene-3,20-dione, cold reference hormone progesterone; for relative affinity of the bond (ARL), Progestogen, 2H: incubation 2H at 0° C.; for relative affinity of the bond (ARL), Progestogen, 24H: incubation 24H at 0° C.
T1 construct: The first test was on the progesterone receptors of rabbit uterus; from tissue; host or cells: uterus of estradiol-treated immature rabbits, 105,000 g supernatant (cytosol)
T1 sequence (P06186 1-930): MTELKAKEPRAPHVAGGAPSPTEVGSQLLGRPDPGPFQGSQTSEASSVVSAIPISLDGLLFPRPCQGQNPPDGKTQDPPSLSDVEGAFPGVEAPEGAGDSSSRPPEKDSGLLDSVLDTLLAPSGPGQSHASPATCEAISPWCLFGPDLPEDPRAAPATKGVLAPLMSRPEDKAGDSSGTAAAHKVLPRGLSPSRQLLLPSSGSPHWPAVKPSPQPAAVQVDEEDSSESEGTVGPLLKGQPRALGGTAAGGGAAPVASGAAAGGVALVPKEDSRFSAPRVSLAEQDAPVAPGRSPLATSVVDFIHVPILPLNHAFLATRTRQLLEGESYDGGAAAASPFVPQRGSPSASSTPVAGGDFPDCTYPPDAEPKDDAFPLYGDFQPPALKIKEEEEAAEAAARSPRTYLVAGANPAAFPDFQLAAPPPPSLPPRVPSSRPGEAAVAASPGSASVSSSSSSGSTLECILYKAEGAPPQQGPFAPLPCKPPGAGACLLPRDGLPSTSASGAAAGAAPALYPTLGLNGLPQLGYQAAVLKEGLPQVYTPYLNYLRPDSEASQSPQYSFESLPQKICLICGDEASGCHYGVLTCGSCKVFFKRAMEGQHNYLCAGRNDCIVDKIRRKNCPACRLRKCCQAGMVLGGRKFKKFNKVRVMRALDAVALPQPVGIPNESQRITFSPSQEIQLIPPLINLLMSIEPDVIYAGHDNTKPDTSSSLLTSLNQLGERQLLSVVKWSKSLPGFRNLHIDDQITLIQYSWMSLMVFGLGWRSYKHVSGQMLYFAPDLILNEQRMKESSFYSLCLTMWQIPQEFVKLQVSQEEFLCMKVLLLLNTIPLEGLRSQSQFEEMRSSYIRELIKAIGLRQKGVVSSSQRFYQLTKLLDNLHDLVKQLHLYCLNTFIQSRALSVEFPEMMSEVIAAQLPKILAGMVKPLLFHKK
Protocol: The first test was on the progesterone receptors of rabbit uterus in which immature rabbits weighing about 1 kg received a cutaneous application of […] of estradiol and 5 days after treatment, the animals were sacrificed. The […] was removed, weighed and homogenized at 0° C. with a Potter Teflon-glass ina buffered solution. TS (Tris 10 mM, 0.25M Saccharose, HCl, pH 7.4) (1 g of tissue per 50 ml of TS). The homogenate was ultracentrifuged at 105,000 g×90 minutes at 0° C. The surnageant samples were incubated at a time at (t) 0° C. with a constant concentration (T) of tritiated product (R) which is 17,21-dimethyl-19-nor-Δ^4,9 -pregnadiene-3,20-dione in the presence of increasing concentrations from 0 to 2500×10^-9 M or cold R or cold progestenone or cold test compound. The concentration of bound tritiated R was measured for each incubate by absorption technique on dextran carbon.
(§1) The relative affinity of the bond (ARL) was calculated in the same for the receptors. One traced the following 2 curves: the percentage of bond tritiated hormone B/T as a logarithmic function of the concentration of the cold reference hormone and B/T as a logarithmic function of the concentration of the cold test compound. Using the equation [formula] B/T max.=% of bound tritiated hormone for one incubation of tritiated hormone at concentration (T)
(§2) B/T min.=% of bound tritiated hormone for one incubation of tritiated hormone at a concentration T in the presence of a great excess of cold hormone (2500×10^-9 M).
(§3) The intersections of I50 lines and the curves permit an evaluation of the hormone concentration of the cold reference (CH) and the cold test compound (CX) which inhibited by 50% the bounding of tritiated hormone to the receptor. The ARL of the test compound was determined by the equation. [formula] and the following results were obtained.

[2] = target: T2, glucocorticoid receptor, rat thymus (Rattus norvegicus, UniProt P06536); test: Relative binding affinity (ARL), glucocorticoid receptor of rat thymus; conditions: rat thymus cytosol, tritiated dexamethasone, cold reference dexamethasone; for relative affinity of the bond (ARL), Glucocorticoid, 2H: incubation 2H at 0° C.; for relative affinity of the bond (ARL), Glucocorticoid, 24H: incubation 24H at 0° C.
T2 construct: The second test was a glucocrticoid receptor test on rat thymus; from tissue; host or cells: thymus of adrenalectomized male Sprague Dawley EOPS rats, 105,000 g supernatant (cytosol)
T2 sequence (P06536 1-795): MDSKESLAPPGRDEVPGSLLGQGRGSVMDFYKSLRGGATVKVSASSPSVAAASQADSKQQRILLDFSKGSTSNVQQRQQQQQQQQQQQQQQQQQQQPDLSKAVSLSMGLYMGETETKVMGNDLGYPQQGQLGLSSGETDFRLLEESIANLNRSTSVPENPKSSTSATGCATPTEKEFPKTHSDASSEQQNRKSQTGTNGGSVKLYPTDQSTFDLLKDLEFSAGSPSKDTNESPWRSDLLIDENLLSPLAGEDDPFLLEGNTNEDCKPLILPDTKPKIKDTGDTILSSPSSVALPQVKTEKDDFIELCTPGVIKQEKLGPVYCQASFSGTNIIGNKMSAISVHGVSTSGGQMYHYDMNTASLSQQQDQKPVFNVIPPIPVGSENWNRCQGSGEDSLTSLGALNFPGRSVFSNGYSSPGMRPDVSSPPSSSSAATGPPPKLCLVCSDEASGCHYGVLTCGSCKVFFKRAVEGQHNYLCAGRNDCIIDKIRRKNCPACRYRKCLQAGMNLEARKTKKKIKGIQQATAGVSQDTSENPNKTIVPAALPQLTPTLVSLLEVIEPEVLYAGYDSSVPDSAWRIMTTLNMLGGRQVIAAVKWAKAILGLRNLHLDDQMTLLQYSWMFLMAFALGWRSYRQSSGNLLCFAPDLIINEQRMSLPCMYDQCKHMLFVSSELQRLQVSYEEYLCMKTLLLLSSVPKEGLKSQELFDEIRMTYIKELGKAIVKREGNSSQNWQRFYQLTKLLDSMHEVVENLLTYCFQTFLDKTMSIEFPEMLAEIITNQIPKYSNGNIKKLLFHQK
Protocol: The second test was a glucocrticoid receptor test on rat thymus in which male rats of the Sprague Dawley EOPS strain weighing 160 to 200 g were surrenalectomized. 4 to 8 days after this ablation, the animals were killed and the thymus was removed and homogenized at 0° C. in a buffered TS solution. (Tris 10 mM, 0.25M saccharose, 2 mM dithiothreitol, HCl pH 7.4) with a Potter tetrafluoroethylene-glass (1 g of tissue per 10 ml/TS). The homogenate was ultracentrifuged at 105,000 for 90 minutes at 0° C. and the surnageant samples were incubated at 0° C. for a time t with a constant concentration T of tritiated dexamethasone in the presence of increasing concentrations (0-2500×10^-9 M) or cold dexamethasone or cold test compound. The concentration B of bound tritiated dexamethasone was measured for each incubate by carbon-dextran absorption technique.
as §1, §2, §3

| SMILES | relative affinity of the bond (ARL), Progestogen, 2H [1] | relative affinity of the bond (ARL), Progestogen, 24H [1] | relative affinity of the bond (ARL), Glucocorticoid, 2H [2] | relative affinity of the bond (ARL), Glucocorticoid, 24H [2] |
| --- | --- | --- | --- | --- |
| COc1ccc([C@H]2C[C@@]3(C)[C@@H](CC[C@@]3(O)c3ccc(OC)cc3)[C@@H]3CCC4=CC(=O)CCC4=C32)cc1 [Example 1, 11β,17α-bis-(4-methoxy-phenyl)-Δ^4,9-estradiene-17β-ol-3-one] | 48 | 259 | 94 | 68 |
| CN(C)c1ccc([C@H]2C[C@@]3(C)[C@@H](CC[C@@]3(O)c3ccc(O)cc3)[C@@H]3CCC4=CC(=O)CCC4=C32)cc1 [Example 6, 11β-(4-dimethylamino-phenyl)-17α-(4-hydroxy-phenyl)-Δ^4,9-estradiene-17β-ol-3-one] | 33 | 35 | 133 | 97 |
| CSc1ccc([C@H]2C[C@@]3(C)[C@@H](CC[C@@]3(O)c3ccc(N(C)C)cc3)[C@@H]3CCC4=CC(=O)CCC4=C32)cc1 [Example 7, 11β-(4-methylthio-phenyl)-17α-(4-dimethylamino-phenyl)-Δ^4,9-estraidene-17β-ol-3-one] | 32 | 150 | 71 | 57 |
| Cc1ccc([C@]2(O)CC[C@H]3[C@@H]4CCC5=CC(=O)CCC5=C4[C@@H](c4ccc(N(C)C)cc4)C[C@@]32C)cc1 [Example 9, 11β-(4-dimethylamino-phenyl)-17α-(4-methyl-phenyl)-Δ^4,9-estradiene-17β-ol-3-one] | 22 | 110 | 39 | 40 |
| CN(C)c1ccc([C@H]2C[C@@]3(C)[C@@H](CC[C@@]3(O)c3ccccc3O)[C@@H]3CCC4=CC(=O)CCC4=C32)cc1 [Example 10, 11β-(4-dimethylamino-phenyl)-17α-(2-hydroxy-phenyl)-Δ^4,9-estradiene-17β-ol-3-one] | 47 | 189 | 106 | 112 |
| COc1ccccc1[C@]1(O)CC[C@H]2[C@@H]3CCC4=CC(=O)CCC4=C3[C@@H](c3ccc(N(C)C)cc3)C[C@@]21C [Example 11 (Product A), 11β-(4-dimethylamino-phenyl)-17α-(2-methoxy-phenyl)-Δ^4,9-estradiene-17β-ol-3-one] | 38 | 230 | 56 | 45 |
| COc1ccccc1[C@@]1(O)CC[C@H]2[C@@H]3CCC4=CC(=O)CCC4=C3[C@@H](c3ccc(N(C)C)cc3)C[C@@]21C [Example 11 (Product B), 11β-(4-dimethylamino-phenyl)-17β-(2-methoxy-phenyl)-Δ^4,9-estradiene-17α-ol-3-one] | 12 | 49 | 47 | 40 |
| COc1cccc([C@]2(O)CC[C@H]3[C@@H]4CCC5=CC(=O)CCC5=C4[C@@H](c4ccc(N(C)C)cc4)C[C@@]32C)c1 [Example 12 (Product A), 11β-(4-dimethylamino-phenyl)-17α-(3-methoxy-phenyl)-Δ^4,9-estradiene-17β-ol-3-one] | 24 | 131 | 90 | 76 |
